Experimental data as given in BindingDB's records for doi:10.1021/jm00063a011 (Kyowa Hakko Kogyo, 1993).

Assays:
[1] = biological target: Thromboxane-A synthase (Bos taurus); test: Activity against TXA2 synthase in bovine platelet microsome
[2] = as above

Row | SMILES | IC50 [1] [nM] | IC50 [2] [nM]
1 | O=C(O)c1ccc2c(c1)C(SCc1cccnc1)c1ccccc1CO2 (stereo not drawn) [11-(Pyridin-3-ylmethylsulfanyl)-6,11-dihydro-dibenzo[b,e]oxepine-2-carboxylic acid] | 4 | 400
2 | C/C(=C\c1ccc(Cc2cccnc2)cc1)C(=O)O [Sodium; (E)-2-methyl-3-(4-pyridin-3-ylmethyl-phenyl)-acrylate] | 4.3 | 
